Legend:
Type in all cases: cell-based
[1] = tested on: SK-MEL-28 cells; assay: CellTiter-Glo cell viability, SK-MEL-28; conditions: Homo sapiens, 72 h
Method: (§1) The cell viability of 50 cancer cell lines was studied after treatment with Compound 121. Inhibition concentration values at 50% (IC50) were determined using CellTiter-Glo luminescent cell viability assay after incubation with different compound concentrations. GI50 values were determined according to the examples described above. Each cell line was treated with Compound 121, a standard chemotherapy drug as a reference control, and culture medium as a vehicle control.
(§2) All cells were cultured in media supplemented with 10-15% FBS at 37° C. in the presence of 5% CO2 and at 95% humidity. The culture medium was purchased from GIBCO or Sigma, USA. Cisplatin was chosen as the reference control and purchased from Hospira Australia Pty Ltd. The cell lines studied are presented in Table 5.
(§3) Cells were harvested during a logarithmic growth period and cell number count was determined using Count-star. Cell concentrations were adjusted to 4.44×10^4 cells/mL with respective culture medium. 90 μL of cell suspensions were added to two 96-well plates (plates A and B) with a final cell density of 4×10^3 cells/well.
(§4) 10 μL of culture medium was added to each well of plate A for TO reading. The plate was allowed to equilibrate at room temperature for approximately 30 min. 50 μL of CellTiter-Glo was added to each well and the contents were mixed for 5 min on an orbital shaker to induce cell lysis. The plate was allowed to incubate at room temperature for 20 min to stabilize luminescent signal.
(§5) 10 μM Compound 121 in media was serially diluted 3.16-fold to achieve 9 dose levels. Similarly, 100 μM reference control in media was serially diluted 3.16-fold to prepare reference control solutions. 10 μL drug solution and 10 μL of reference control was dispensed into each well in plate B.
(§6) Test plate B was incubated for 72 h in a humidified incubator at 37° C. in the presence of 5% CO2 and then subjected to CTG assay. The plate was allowed to equilibrate at room temperature for about 30 min. 50 μL of CellTiter-Glo was added to each well and the contents were mixed for 5 min on an orbital shaker to induce cell lysis. The plate was allowed to incubate at room temperature for 20 min to stabilize luminescent signal.
(§7) IC50 and GI50 values for each of the 50 cell lines are presented in Table 6 and were calculated based on the dose-response curves depicted in FIGS. 1-50. The dose-response curves were fitted using nonlinear regression model with a sigmoidal dose response. The formula for calculating survival rate was calculated by the formula:
(§8) Survival rate (%)=(LumTest article−LumMedium control)/(LumNone treated−LumMedium control)×100.

[2] = tested on: HT-1376 cells; assay: CellTiter-Glo cell viability, HT-1376; conditions: Homo sapiens, 72 h
Method: as §1, §2, §3, §4, §5, §6, §7, §8

[3] = tested on: KARPAS-299 cells; assay: CellTiter-Glo cell viability, KARPAS-299; conditions: Homo sapiens, 72 h
Method: as §1, §2, §3, §4, §5, §6, §7, §8

[4] = tested on: HT-29 cells; assay: CellTiter-Glo cell viability, HT-29; conditions: Homo sapiens, 72 h
Method: as §1, §2, §3, §4, §5, §6, §7, §8

[5] = tested on: SNU-5 cells; assay: CellTiter-Glo cell viability, SNU-5; conditions: Homo sapiens, SNU-5, SN1J-5 cells, 72 h
Method: as §1, §2, §3, §4, §5, §6, §7, §8

[6] = tested on: MES-SA/DX5 cells; assay: CellTiter-Glo cell viability, MES-SA/DX5; conditions: Homo sapiens, 72 h
Method: as §1, §2, §3, §4, §5, §6, §7, §8

[7] = tested on: SCC-4 cells; assay: CellTiter-Glo cell viability, SCC-4; conditions: Homo sapiens, 72 h
Method: as §1, §2, §3, §4, §5, §6, §7, §8

[8] = tested on: NCI-H1155 cells; assay: CellTiter-Glo cell viability, NCI-H1155; conditions: Homo sapiens, 72 h
Method: as §1, §2, §3, §4, §5, §6, §7, §8

[9] = tested on: 786-O cells; assay: CellTiter-Glo cell viability, 786-O; conditions: Homo sapiens, 786-0, 72 h
Method: as §1, §2, §3, §4, §5, §6, §7, §8

[10] = tested on: TJ905 cells; assay: CellTiter-Glo cell viability, TJ905; conditions: 72 h
Method: as §1, §2, §3, §4, §5, §6, §7, §8

[11] = tested on: MX-1 cells; assay: CellTiter-Glo cell viability, MX-1; conditions: Homo sapiens, MX1, 72 h
Method: as §1, §2, §3, §4, §5, §6, §7, §8

[12] = tested on: SK-OV-3 cells; assay: CellTiter-Glo cell viability, SK-OV-3; conditions: Homo sapiens, 72 h
Method: as §1, §2, §3, §4, §5, §6, §7, §8

[13] = tested on: NCI-H209 cells; assay: CellTiter-Glo cell viability, NCI-H209; conditions: Homo sapiens, 72 h
Method: as §1, §2, §3, §4, §5, §6, §7, §8

[14] = tested on: A2058 cells; assay: CellTiter-Glo cell viability, A2058; conditions: Homo sapiens, 72 h
Method: as §1, §2, §3, §4, §5, §6, §7, §8

[15] = tested on: A-172 cells; assay: CellTiter-Glo cell viability, A-172; conditions: Homo sapiens, 72 h
Method: as §1, §2, §3, §4, §5, §6, §7, §8

[16] = tested on: HUH-7 cells; assay: CellTiter-Glo cell viability, HUH-7; conditions: Homo sapiens, 72 h
Method: as §1, §2, §3, §4, §5, §6, §7, §8

[17] = tested on: JEG-3 cells; assay: CellTiter-Glo cell viability, JEG-3; conditions: Homo sapiens, 72 h
Method: as §1, §2, §3, §4, §5, §6, §7, §8

[18] = tested on: RPMI 8226 cells; assay: CellTiter-Glo cell viability, RPMI 8226; conditions: Homo sapiens, 72 h
Method: as §1, §2, §3, §4, §5, §6, §7, §8

[19] = tested on: K-562 cells; assay: CellTiter-Glo cell viability, K-562; conditions: Homo sapiens, K562, 72 h
Method: as §1, §2, §3, §4, §5, §6, §7, §8

[20] = tested on: KP4 cells; assay: CellTiter-Glo cell viability, KP4; conditions: Homo sapiens, KP-4, 72 h
Method: as §1, §2, §3, §4, §5, §6, §7, §8

[21] = tested on: HuCCT1 cells; assay: CellTiter-Glo cell viability, HuCCT1; conditions: Homo sapiens, HuCCT-1, 72 h
Method: as §1, §2, §3, §4, §5, §6, §7, §8

[22] = top conc. 10 μM Compound 121, 100 μM cisplatin

Cc1cc(N2CCOC[C@@H]2C)ccc1-c1ccc(CC(=O)NCc2ccc(F)cc2)nc1 [Compound 121] showed a GI50 ([1]; read-out: Absolute GI50) of 4 nM, an IC50 ([1]; read-out: Absolute IC50) greater than 10000 nM and an inhibition at 10 µM [1, 22] of 52.9%. For the same compound, the GI50 ([2]; read-out: Absolute GI50) was 6 nM, the IC50 ([2]; read-out: Absolute IC50) was 9 nM and the inhibition at 10 µM [2, 22] was 53%. The GI50 ([3]; read-out: Absolute GI50) was 6 nM, the IC50 ([3]; read-out: Absolute IC50) was 6 nM and the inhibition at 10 µM [3, 22] was 99.4%. For the same compound, the GI50 ([4]; read-out: Absolute GI50) was 4 nM, the IC50 ([4]; read-out: Absolute IC50) was 4 nM and the inhibition at 10 µM [4, 22] was 78.5%. For the same compound, the GI50 ([5]; read-out: Absolute GI50) was 11 nM, the IC50 ([5]; read-out: Absolute IC50) was 12 nM and the inhibition at 10 µM [5, 22] was 96.2%. The GI50 ([6]; read-out: Absolute GI50) was 7 nM, the IC50 ([6]; read-out: Absolute IC50) was 7 nM and the inhibition at 10 µM [6, 22] was 97.8%. The GI50 ([7]; read-out: Absolute GI50) was 5 nM, the IC50 ([7]; read-out: Absolute IC50) was 6 nM and the inhibition at 10 µM [7, 22] was 86.1%. The GI50 ([8]; read-out: Absolute GI50) was 6 nM, the IC50 ([8]; read-out: Absolute IC50) was 7 nM and the inhibition at 10 µM [8, 22] was 87.3%. It also gave a GI50 ([9]; read-out: Absolute GI50) of 5 nM, an IC50 ([9]; read-out: Absolute IC50) of 5 nM and an inhibition at 10 µM [9, 22] of 85.3%. It also gave a GI50 ([10]; read-out: Absolute GI50) of 4 nM, an IC50 ([10]; read-out: Absolute IC50) of 4 nM and an inhibition at 10 µM [10, 22] of 70%. The GI50 ([11]; read-out: Absolute GI50) was 11 nM, the IC50 ([11]; read-out: Absolute IC50) was 18 nM and the inhibition at 10 µM [11, 22] was 66.8%. It also gave a GI50 ([12]; read-out: Absolute GI50) of 4 nM, an IC50 ([12]; read-out: Absolute IC50) of 4 nM and an inhibition at 10 µM [12, 22] of 66.2%. The GI50 ([13]; read-out: Absolute GI50) was 17 nM, the IC50 ([13]; read-out: Absolute IC50) was 20 nM and the inhibition at 10 µM [13, 22] was 73.7%. It also gave a GI50 ([14]; read-out: Absolute GI50) of 8 nM, an IC50 ([14]; read-out: Absolute IC50) of 8 nM and an inhibition at 10 µM [14, 22] of 98.1%. The GI50 ([15]; read-out: Absolute GI50) was 6 nM, the IC50 ([15]; read-out: Absolute IC50) was 7 nM and the inhibition at 10 µM [15, 22] was 92.8%. The GI50 ([16]; read-out: Absolute GI50) was 7 nM, the IC50 ([16]; read-out: Absolute IC50) was 9 nM and the inhibition at 10 µM [16, 22] was 60.8%. For the same compound, the GI50 ([17]; read-out: Absolute GI50) was 8 nM, the IC50 ([17]; read-out: Absolute IC50) was 9 nM and the inhibition at 10 µM [17, 22] was 86.5%. For the same compound, the GI50 ([18]; read-out: Absolute GI50) was 5 nM, the IC50 ([18]; read-out: Absolute IC50) was 6 nM and the inhibition at 10 µM [18, 22] was 94.8%. For the same compound, the GI50 ([19]; read-out: Absolute GI50) was 6 nM, the IC50 ([19]; read-out: Absolute IC50) was 6 nM and the inhibition at 10 µM [19, 22] was 98.1%. For the same compound, the GI50 ([20]; read-out: Absolute GI50) was 7 nM, the IC50 ([20]; read-out: Absolute IC50) was 8 nM and the inhibition at 10 µM [20, 22] was 90.8%. The GI50 ([21]; read-out: Absolute GI50) was 4 nM, the IC50 ([21]; read-out: Absolute IC50) was 4 nM and the inhibition at 10 µM [21, 22] was 54%.

From US20210196724A1, “BIARYL COMPOSITIONS AND METHODS FOR MODULATING A KINASE CASCADE” (Athenex, Inc., priority 2016, published 2021)
